This assay has as its system MDA-MB-231 human breast cancer cells. The assay is described as follows: Cell proliferation assay (CellTiter-Glo, 72 hours treatment). As to conditions: Homo sapiens; MDA-MB-231 cells, 72 hours at 37° C., CellTiter-Glo; read-out: MDA-MB-231 cell proliferation assay (IC50). Type of assay: cell-based. Summed up: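 MDA-MB-231 cells seeded at 2,500 cells/well, treated next day with compound or DMSO vehicle for 72 h at 37 °C. Proliferation read by CellTiter-Glo; IC50 from sigmoidal non-linear regression, binned as +++ (<100 nM), ++ (100–1000 nM), + (>1000 nM).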

Consider `COc1cncc2c1[C@]1(O)[C@@H](CN3CCOCC3)[C@H](CO)[C@@H](c3ccccc3)[C@]1(c1ccc(Br)cc1)O2` (racemic) [179F, Rac-(4bR,5R,6R,7S,7aR)-7a-(4-bromophenyl)-6-(hydroxymethyl)-4-methoxy-5-(morpho-linomethyl)-7-phenyl-5,6,7,7a-tetrahydro-4bH-cyclopenta[4,5]furo[2,3-c]pyridin-4b-ol], for which the IC50 was below 100 nM. In the case of `COc1cncc2c1[C@]1(O)[C@@H](CN3CC4(COC4)C3)[C@H](CO)[C@@H](c3ccccc3)[C@]1(c1ccc(C#N)cc1)O2` (racemic) [202F, Rac-4-((4bR,5R,6R,7S,7aR)-5-((2-oxa-6-azaspiro[3.3]heptan-6-yl)methyl)-4b-hydroxy-6-(hydroxymethyl)-4-methoxy-7-phenyl-4b,5,6,7-tetrahydro-7aH-cyclopenta[4,5]furo[2,3-c]pyridin-7a-yl)benzonitrile], the IC50 was below 100 nM. With `CNC[C@H]1[C@@H](O)[C@@]2(O)c3ncc(Cl)cc3O[C@@]2(c2ccc(C#N)cc2)[C@@H]1c1ccccc1` (racemic) [39F, Rac-4-((5aR,6S,7S,8R,8aS)-3-chloro-8,8a-dihydroxy-7-((methylamino)methyl)-6-phenyl-6,7,8,8a-tetrahydro-5aH-cyclopenta[4,5]furo[3,2-b]pyridin-5a-yl)benzonitrile], the IC50 is 100 to 1000 nM.

Regarding `COc1nc(Cl)cc2c1[C@]1(O)[C@H](O)[C@H](CN)[C@@H](c3ccccc3)[C@]1(c1ccc(C#N)cc1)O2` (racemic) [294F, Rac-4-((5aR,6S,7S,8R,8aS)-7-(aminomethyl)-3-chloro-8,8a-dihydroxy-1-methoxy-6-phenyl-6,7,8,8a-tetrahydro-5aH-cyclopenta[4,5]furo[3,2-c]pyridin-5a-yl)benzonitrile], the IC50 was below 100 nM.

As to `N#Cc1ccc([C@@]23Oc4cc(Cl)cnc4[C@]2(O)[C@H](O)[C@@H](CN2CCCC2)[C@H]3c2ccccc2)cc1` (racemic) [41Fa, Rac-4-((5aR,6S,7R,8R,8aS)-3-chloro-8,8a-dihydroxy-6-phenyl-7-(pyrrolidin-1-ylmethyl)-6,7,8,8a-tetrahydro-5aH-cyclopenta[4,5]furo[3,2-b]pyridin-5a-yl)benzonitrile], the IC50 is above 1000 nM. For `COc1nc(Cl)cc2c1[C@]1(O)[C@H](O)[C@H](CN3CCOCC3)[C@@H](c3ccccc3)[C@]1(c1ccc(C#N)cc1)O2` (racemic) [152F, Rac-4-((5aR,6S,7S,8R,8aS)-3-chloro-8,8a-dihydroxy-1-methoxy-7-(morpholinomethyl)-6-phenyl-6,7,8,8a-tetrahydro-5aH-cyclopenta[4,5]furo[3,2-c]pyridin-5a-yl)benzonitrile] the value was below 100 nM. Turning to `COc1nc(C#N)cc2c1[C@]1(O)[C@H](O)[C@H](CN3CC(C(F)F)C3)[C@@H](c3ccccc3)[C@]1(c1ccc(C#N)cc1)O2` (racemic) [218F, Rac-(5aR,6S,7S,8R,8aS)-5a-(4-cyanophenyl)-7-((3-(difluoromethyl)azetidin-1-yl)methyl)-8,8a-dihydroxy-1-methoxy-6-phenyl-5a,7,8,8a-tetrahydro-6H-cyclopenta[4,5]furo[3,2-c]pyridine-3-carbonitrile], the IC50 is below 100 nM. As to `COC1=C(C(=O)N(C)C)[C@@H](c2ccccc2)[C@]2(c3ccc(Br)cc3)Oc3cc(Cl)cnc3[C@]12O` (racemic) [35F, rac-(5aR,6R,8aS)-5a-(4-bromophenyl)-3-chloro-8a-hydroxy-8-methoxy-N,N-dimethyl-6-phenyl-5a,8a-dihydro-6H-cyclopenta[4,5]furo[3,2-b]pyridine-7-carboxamide], the IC50 was above 1000 nM. For `COc1cncc2c1[C@]1(O)[C@H](O)[C@H](C(=O)N(C)C)[C@@H](c3ccccc3)[C@]1(c1ccc(Cl)cc1)O2` (racemic) [271F, rac-(4bS,5R,6R,7S,7aR)-7a-(4-chlorophenyl)-4b,5-dihydroxy-4-methoxy-N,N-dimethyl-7-phenyl-4b,6,7,7a-tetrahydro-5H-cyclopenta[4,5]furo[2,3-c]pyridine-6-carboxamide], the IC50 was in the range of 100 to 1000 nM.

These data come from US10577378B2, “EIF4A-inhibiting compounds and methods related thereto” (eFFECTOR Therapeutics, Inc., priority 2015, dated 2020).
